Tests used:
MCF-7 cells = experiment: Total cellular platinum uptake (ICP OES); assay type: cell-based, human; conditions: MCF-7, 4 h exposure, 10 µM
Method: It is necessary to strongly emphasize that the underlined values have a statistically significant lack of variance homogeneity (Fisher–Snedecor’s F-test, Fα/2) with respect to reference drug variance, so Aspin–Welch’s t-test was applied in these cases. […] For ionic compound 8, platinum uptake value was not determined due to Pt concentrations in the cell lysates being below the instrument detection limit (IDL = 10 μg/kg) specified by the manufacturer for the device used.
Cultured MCF-7 cells were seeded at a density of 4 × 10^5 cells/well of culture medium on a 6-well plate (Corning, NY, USA) to a final volume of 2.5 mL. […] The wells without MCF-7 cells were filled with 1 mL of culture medium-containing compound tested to act as a reference for nonspecific platinum complex adsorption on the surface of the well. After incubation, all wells were washed twice with 2 mL of cold PBS, filled with 400 μL of hot (ca 90 °C) 65% nitric acid, and maintained to stand for 2 h. All wells were finally filled with 1600 μL of water and this solution was collected and analyzed using iCAP 7400 Duo ICP OES instrument (Thermo Fisher Scientific) using the plasma axial view (10 s) at λ = 265.945 nm. The amount of Pt per cell was calculated by subtracting the amount of Pt found in the blank well from the amount of Pt found in the cell-containing wells and normalized to the average number of cells per well. The mean and SD values were calculated on the basis of 4 measurements.

[1] = system: A549 (lung adenocarcinoma); experiment: In vitro cytotoxicity, sulforhodamine B assay; assay type: cell-based, human; conditions: for IC50 ± SD / IC50: 72 h
Method: (§1) Determination of the cytotoxic activity of compounds tested was performed separately in the normoxia or hypoxia conditions to reveal their potentially bioreductive properties. The experiment was carried out on three human cancer cell lines: MCF-7 breast, ES-2 ovarian and A549 lung adenocarcinoma as well as normal murine embryonic fibroblast BALB/3T3 cell line. In order to facilitate the preparation of solutions of the tested compounds, their initial solutions for dilution were made by dissolving the compounds in acetone. For this purpose, it was not possible to use more polar aprotic solvents (DMSO, DMF) due to the rapid isomerization of some of the tested complexes under their influence.
(§2) All the cell lines were cultured at 37 °C in a humid atmosphere containing 5% CO2. Additionally, in the case of cytotoxicity assay with hypoxic conditions, the cells (MCF-7, ES-2, A549) were maintained at 37 °C in a humid atmosphere containing 5% CO2 and 1% O2 during the entire experiment.
(§3) Twenty-four hours before adding the tested compounds, all cell lines were seeded in 96-well plates ([…] AG & Co, Nümbrecht Germany) in an appropriate media with 10^4 cells per well. All cell lines were exposed to each compound tested at four different concentrations for 72 h. […] Additionally, all cell lines were exposed to acetone (Avantor Performance Materials, Gliwice, Poland) (the solvent used for tested compounds) at concentrations corresponding to those present in tested compounds’ dilutions.
(§4) After 72 h of cell incubation with the compounds tested, the sulforhodamine B (SRB) assay was performed as described by Shekan et al. with minor modifications. The cells were fixed in situ by adding 50 µL per well of cold 50% trichloroacetic acid (Avantor Performance Materials, Gliwice, Poland) and were incubated at 4 °C for one hour. Following that, wells were washed five times with water and air dried. Next, 50 µL of 0.4% solution of sulforhodamine B (Sigma-Aldrich, Steinheim, Germany) in 1% acetic acid (Avantor Performance Materials, Gliwice, Poland) were added to each well and plates were incubated at room temperature for 0.5 h. After incubation time, the unbound dye was removed by washing plates five times with 1% acetic acid, whereas stains bound to cells was solubilized with 10 mM Tris base (Sigma-Aldrich, Steinheim, Germany). The absorbance of each solution was read by the Multiskan RC photometer (Labsystems Diagnostics Oy, Vantaa, Finland) at a 540 nm wavelength. Results are presented as mean IC50 (concentration of the compound tested that inhibits cell proliferation by 50%) ± standard deviation. IC50 values were calculated for each experiment on the basis of four different concentrations using Cheburator software, as described by Nevozhay. The tested compounds at each concentration were tested in triplicates in a single experiment and each experiment was repeated at least three times independently.

[2] = system: ES-2 (ovarian adenocarcinoma); experiment: In vitro cytotoxicity, sulforhodamine B assay; assay type: cell-based, human; conditions: 72 h
Method: as §1, §2, §3, §4

[3] = system: MCF-7 (breast adenocarcinoma); experiment: In vitro cytotoxicity, sulforhodamine B assay; assay type: cell-based, human; conditions: for growth inhibition stronger than reference cisplatin (factor): MCF-7
Method: as §1, §2, §3, §4

[4] = system: BALB/3T3 (murine embryonic fibroblast); experiment: In vitro cytotoxicity, sulforhodamine B assay, normal cells; assay type: cell-based; conditions: for IC50: BALB/3T3 normal cells, normoxia, 72 h
Method: as §1, with “acetone.” for “acetone. For this purpose, it was not possible to use more polar aprotic solvents (DMSO, DMF) due to the rapid isomerization of some of the tested complexes under their influence.”
All cell lines were exposed to each compound tested at four different concentrations for 72 h. […] Additionally, all cell lines were exposed to acetone (Avantor Performance Materials, Gliwice, Poland) (the solvent used for tested compounds) at concentrations corresponding to those present in tested compounds’ dilutions.
as §4, with “Results are presented as mean IC50 (concentration of the compound tested that inhibits cell proliferation by 50%) ± standard deviation.” left out

Cn1cc([N+](=O)[O-])c[n+]1[Pt@SP2-2]([Cl])([Cl])[n+]1cc([N+](=O)[O-])cn1C [Compound 1, cis-dichloridobis(1-methyl-4-nitropyrazole)platinum(II)]
Total Cellular Platinum Uptake in MCF-7 Cells (± SD) (MCF-7 cells): 27 ± 6 ng Pt/10^6 Cells | IC50 ± SD ([1]; A549, hypoxia (1% O2)): inactive | IC50 ([1]; A549, normoxia): 103 ± 28.8 µM | IC50 ([2]; ES-2, hypoxia (1% O2)): 109 ± 22.6 µM | IC50 ([2]; ES-2, normoxia): 29.4 ± 24.9 µM | IC50 ± SD ([3]; MCF-7, hypoxia (1% O2), 72 h): inactive | IC50 ([3]; MCF-7, normoxia, 72 h): 74.7 ± 36.1 µM | IC50 [4]: > 100 µM

Cn1cc([N+](=O)[O-])c[n+]1[Pt@SP3-2]([Cl])([Cl])[n+]1cc([N+](=O)[O-])cn1C [Compound 2, trans-dichloridobis(1-methyl-4-nitropyrazole)platinum(II)]
Total Cellular Platinum Uptake in MCF-7 Cells (± SD) (MCF-7 cells): 32 ± 6 ng Pt/10^6 Cells | effect stronger than reference cisplatin (times) ([1]; A549): 2.6 times | IC50 ([1]; A549, hypoxia (1% O2)): 7.7 ± 7.4 µM | IC50 ([1]; A549, normoxia): 3.7 ± 2.9 µM | IC50 ([2]; ES-2, hypoxia (1% O2)): 1.1 ± 0.3 µM | IC50 ([2]; ES-2, normoxia): 0.7 ± 0.7 µM | growth inhibition stronger than reference cisplatin (factor) [3]: about seven times | IC50 ([3]; MCF-7, hypoxia (1% O2), 72 h): 11.1 ± 5.6 µM | IC50 ([3]; MCF-7, normoxia, 72 h): 1.8 ± 0.9 µM | IC50 [4]: 8.19 ± 2.9 µM | selectivity index (SI; ratio of cytotoxic concentration for healthy cells to that for cancer cells) ([4]; BALB/3T3 vs MCF-7, ES-2, A549, range): 2.2–11.7

Cn1c([N+](=O)[O-])cc[n+]1[Pt@SP2-2]([Cl])([Cl])[n+]1ccc([N+](=O)[O-])n1C [Compound 3, cis-dichloridobis(1-methyl-5-nitropyrazole)platinum(II)]
Total Cellular Platinum Uptake in MCF-7 Cells (± SD) (MCF-7 cells): 82 ± 11 ng Pt/10^6 Cells | IC50 ± SD ([1]; A549, hypoxia (1% O2)): inactive | IC50 ([1]; A549, normoxia): 53.4 ± 10 µM | IC50 ([2]; ES-2, hypoxia (1% O2)): 51.9 ± 16.7 µM | IC50 ([2]; ES-2, normoxia): 75.4 ± 12.3 µM | IC50 ([3]; MCF-7, hypoxia (1% O2), 72 h): 41.5 ± 39.9 µM | IC50 ([3]; MCF-7, normoxia, 72 h): 10.1 ± 1.4 µM | IC50 [4]: > 100 µM

Cn1c([N+](=O)[O-])cc[n+]1[Pt@SP3-2]([Cl])([Cl])[n+]1ccc([N+](=O)[O-])n1C [Compound 4, trans-dichloridobis(1-methyl-5-nitropyrazole)platinum(II)]
Total Cellular Platinum Uptake in MCF-7 Cells (± SD) (MCF-7 cells): 83 ± 12 ng Pt/10^6 Cells | IC50 ± SD ([1]; A549, hypoxia (1% O2)): inactive | IC50 ([1]; A549, normoxia): 31 ± 9.5 µM | IC50 ([2]; ES-2, hypoxia (1% O2)): 32.3 ± 27 µM | IC50 ([2]; ES-2, normoxia): 41.1 ± 7.1 µM | growth inhibition stronger than reference cisplatin (factor) [3]: almost two times | IC50 ([3]; MCF-7, hypoxia (1% O2), 72 h): 32 ± 9.2 µM | IC50 ([3]; MCF-7, normoxia, 72 h): 7.8 ± 1.3 µM | IC50 [4]: 74.4 ± 23.2 µM

Reference: article PMC7768359, “Synthesis of Platinum(II) Complexes with Some 1-Methylnitropyrazoles and In Vitro Research on Their Cytotoxic Activity” (Pharmaceuticals, 2020)
